From patent publication US11384097B2, “Tetrahydroisoquinoline derivative, preparation method therefor and use thereof” (ZHEJIANG HISUN PHARMACEUTICAL CO., LTD., priority 2018, dated 2022) come the findings set out here.

Like-named read-outs stand apart in the source and are kept apart here.

Series [1] addresses T1, Human AT2R (Homo sapiens, UniProt P50052).
T1 construct: Terbium (Tb) donor label on the receptor; From my own knowledge, the Tag-lite format usually uses an N-terminal SNAP-tag fusion labelled with Lumi4-Tb; expressed in transfected cells
T1 sequence (P50052 1-363): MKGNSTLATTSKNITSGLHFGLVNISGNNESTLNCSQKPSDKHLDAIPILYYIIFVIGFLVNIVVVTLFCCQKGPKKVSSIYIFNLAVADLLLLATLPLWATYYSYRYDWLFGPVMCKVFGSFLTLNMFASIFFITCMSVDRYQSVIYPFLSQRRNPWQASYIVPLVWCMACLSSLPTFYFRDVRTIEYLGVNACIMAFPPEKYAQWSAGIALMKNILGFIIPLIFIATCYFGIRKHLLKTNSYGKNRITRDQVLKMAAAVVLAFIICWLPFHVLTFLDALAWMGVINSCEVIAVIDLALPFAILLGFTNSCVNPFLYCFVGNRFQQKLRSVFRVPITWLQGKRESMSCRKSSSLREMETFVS
The experiment in a line: Antagonistic activity assay on human AT2R ligand binding (Tag-lite HTRF, Tb-labeled-AT2R cells). The settings on record: AT2 ligand binding, red agonist fluorescent ligand. In general terms: In TR-FRET formats the signal depends on donor and acceptor labels being close together.
Experimental: Antagonistic Activity Assay of the Compound of the Present Disclosure on Human AT2R Ligand Binding
According to standard methods, all compounds were dissolved in dimethyl sulfoxide and prepared as 10 mM stock solutions.
(3) Each of the diluted compound in step (2) was transferred to a working plate (3657, Corning) at 160 nL/well, at 200 g, at room temperature for 1 minute;
(4) 40 μl 1×TLB was added to the above working plate, and it was centrifuged at 200 g (centrifugal force) at room temperature for 1 minute, shook on a shaker for 15 minutes to mix well, and centrifuged at 200 g (working concentration of the compound was 4×) at room temperature for 1 minute for later use;
(6) 5 mL 1×TLB was taken in a 15 mL centrifuge tube;
(7) a Tb-labeled-AT2R cells were frozen and thawed in a 37° C. water bath until the ice was completely melted (1-2 minutes);
(8) The frozen and thawed cells were rapidly transferred to the 1×TLB in step (6), and the resulting solution was mixed gently, and then centrifuged at 1200 g at room temperature for 5 minutes;
After being mixed well, the resulting mixture was placed at room temperature for late use;
(11) The reaction plate was centrifuged at 200 g at room temperature for 1 minute, and stood for 1 hour at room temperature of 25° C., and then it was centrifuged at 200 g at room temperature for 1 minute. The data was collected using Envision HTRF microplate reader, and IC50 was calculated using a nonlinear fitting formula.

A short description of series [2]: Metabolic stability in rat liver microsomes. It counts as in vitro ADME. The settings on record: for half-life at 1 µM: rat liver microsomes 0.5 mg/mL, 1 μM compound, NADPH 1 mM, read-out: Half-life/(T1/2, min). On the procedure:
Test Example 2. Study on the Metabolic Stability of the Compound of the Present Disclosure in Rat Liver Microsomes
The purpose of this experiment is to study the metabolic stability of the compounds of the present disclosure in rat liver microsomes.
The compounds were incubated with rat liver microsomes and coenzyme NADPH was added to initiate the reaction. At 0, 5, 15, 30 and 60 minutes, 20 μL of incubation solution was taken out and transferred to 200 μL of acetonitrile containing internal standard to stop the reaction. After protein precipitation, the resulting mixture was centrifuged at 3,700 rpm for 10 minutes, and the supernatant was taken. The supernatant was diluted 1:1 with water and analyzed by LC-MS/MS method. According to the elimination half-life of the test compound in the incubation system, the in vitro intrinsic clearance rate was calculated. Midazolam was used as the internal reference compound and all incubations were performed in duplicate in parallel.
The peak area ratio analyte/internal standard (Aanalyte/AIS) is obtained by the instrument, and the remaining percentage (% Control) is calculated from the ratio Aanalyte/AIS in the non-zero time point sample to the zero time point sample. Ln (% Control) against incubation time is plotted and a linear fit was performed.
A general note: Liver microsomes are a subcellular fraction often used to study metabolism.

Series [3] can be described thus: Pharmacokinetic study in SD rats (intravenous injection and intragastric administration). It counts as in vivo, Sprague Dawley (SD) rats. The settings on record: for bioavailability / half-life / AUC(0-inf) / MRT / Cmax: male, Sprague-Dawley, rat, plasma; for bioavailability: Oral (10 mg/kg) vs Injection (1 mg/kg), read-out: Bioavailability F(%); for half-life: read-out: Half-life T1/2 (converted); for AUC(0-inf): read-out: area under curve AUC0-∞; for MRT: read-out: residence time MRT; for Cmax: read-out: blood concentration Cmax. On the procedure:
Test Example 3. Oral Pharmacokinetic Studies of the Compounds of the Present Disclosure in SD Rats
SD rats were used as the experimental animal. The rats were intravenously injected or intragastrically administered with the compounds of the present disclosure, and the drug concentrations in plasma at different times were tested by LC/MS/MS methods, so as to research the pharmacokinetic characteristics of compounds of present disclosure in rats.
Forty-eight healthy adult Sprague Dawley (SD) male rats were purchased from Weitong Lihua Laboratory Animal Technology Co., Ltd., production license number: 11400700271077.
48 healthy adult male SD rats were fasted overnight and administered via tail vein injection (at a dosage of 1 mg/kg) and intragastrically administered (at a dosage of 10 mg/kg), respectively. The rats were fed 4 h after the administration.
About 0.2 mL of blood was collected from the jugular vein before administering and at 0.083 hours, 0.25 hours, 0.5 hours, 1 hour, 2 hours, 4 hours, 8 hours, 12 hours, and 24 hours after administering, and heparin sodium was used for anticoagulation. Blood samples were collected and placed on ice, and plasma was separated by centrifugation (centrifugation conditions: 1500 g, 10 min). The collected plasma was stored at −40° C.-20° C. before analysis.
10 μL of plasma sample was taken and 400 μL of acetonitrile (containing internal standard working solution, comprising 5 ng/mL verapamil and 50 ng/mL glibenclamide) was added. The resulting mixture was vortexed for 10 minutes, and centrifuged at 3700 rpm for 10 minutes. 70 μL of the supernatant was taken, and […] of water was added. The resulting mixture was vortexed for 10 minutes, and 2 μL of the mixture was transferred to the LC-MS/MS for sample analysis.

Setting [4] is: iv, Injection (1 mg/kg), tail vein.

The term IC50 denotes the point on the concentration scale where inhibition reaches its midpoint. A higher IC50 goes with lower potency. `COc1ccc2c(c1OCc1ccccc1)C[C@@H](C(=O)O)N(c1nc3ccc(Cl)cc3o1)C2` [Example 16, (S)-5-(benzyloxy)-2-(6-chlorobenzo[d]oxazol-2-yl)-6-methoxy-1,2,3,4-tetrahydroisoquinoline-3-carboxylic acid] registered an IC50 in series [1] of 36 nM. This lies in the double-digit nanomolar range.
Broadly, the bioavailability is dose-corrected exposure relative to a reference, in per cent. A word on the MRT: it is the average time that molecules of a dose stay in the body. Turning to `COc1ccc(COc2c(OC)ccc3c2C[C@@H](C(=O)O)N(c2nc4ccc(F)cc4o2)C3)cn1` [Example 39, (S)-2-(6-fluorobenzo[d]oxazol-2-yl)-6-methoxy-5-((6-methoxypyridin-3-yl)methoxy)-1,2,3,4-tetrahydroisoquinoline-3-carboxylic acid], in series [2], the half-life at 1 µM is 845 min. Also, the “Half-life T1/2” value in series [3] (Injection (1 mg/kg), tail vein) amounted to 2.3 ± 0.4 h. In addition, the bioavailability in series [3] came to 45.3%. Besides, in series [3] (Oral (10 mg/kg)), the half-life is 3.6 ± 0.3 h, the AUC(0-inf) is 15300 ± 2260 ng·h/mL and the mean residence time (MRT) was determined as 4.3 ± 0.6 h. In addition, in series [3] (setting [4]), the AUC(0-inf) came to 3380 ± 405 ng·h/mL and the mean residence time MRT is 1.9 ± 0.3 h.
In the case of `COc1ccc2c(c1OCc1ccccc1)C[C@@H](C(=O)O)N(c1nc3ccc(F)cc3o1)C2` [Example 14, (S)-5-(Benzyloxy)-2-(6-fluorobenzo[d]oxazol-2-yl)-6-methoxy-1,2,3,4-tetrahydroisoquinoline-3-carboxylic acid], in series [2], the half-life at 1 µM turned out to be 233 min. In addition, in series [3] (Oral (10 mg/kg)), the half-life was 3.6 ± 0.2 h, the AUC(0-inf) is 29600 ± 4670 ng·h/mL and the mean residence time (MRT) was determined as 5.3 ± 0.4 h. Also, in series [3] (setting [4]), the AUC(0-inf) was 8230 ± 1090 ng·h/mL and the MRT came to 1.9 ± 0.4 h.
Consider `COc1ccc(COc2c(OC)ccc3c2C[C@@H](C(=O)O)N(c2nc4ccc(C#N)cc4o2)C3)cn1` [Example 43, (S)-2-(6-cyanobenzo[d]oxazol-2-yl)-6-methoxy-5-((6-methoxypyridin-3-yl)methoxy)-1,2,3,4-tetrahydroisoquinoline-3-carboxylic acid], for which the IC50 in series [1] was determined as 33 nM.
For `COc1ccc2c(c1OCc1ccccc1)C[C@@H](C(=O)O)N(c1nc3ccncc3o1)C2` [Example 22, (S)-5-(benzyloxy)-6-methoxy-2-(oxazolo[5,4-c]pyridin-2-yl)-1,2,3,4-tetrahydroisoquinoline-3-carboxylic acid], the “remaining original drug after incubation in rat liver microsomes” value in series [2] (rat liver microsomes, 60 minutes) is given as about 100%. Further, in series [3], the bioavailability worked out at 44.6%. In addition, in series [3] (Oral (10 mg/kg)), the half-life was 3.9 ± 0.8 h, the AUC(0-inf) came out at 35700 ± 6090 ng·h/mL, the Cmax was 15900 ± 11000 ng/mL and the mean residence time MRT worked out at 3.7 ± 0.8 h. Besides, in series [3] (setting [4]), the half-life is 2 ± 0.6 h, the AUC(0-inf) was found to be 8020 ± 635 ng·h/mL and the mean residence time MRT was 1.2 ± 0.3 h.
Regarding `COc1ccc2c(c1OCc1ccc(F)cc1)C[C@@H](C(=O)O)N(c1nc3ccc(F)cc3o1)C2` [Example 29, (S)-2-(6-fluorobenzo[d]oxazol-2-yl)-5-((4-fluorobenzyl)oxy)-6-methoxy-1,2,3,4-tetrahydroisoquinoline-3-carboxylic acid], the half-life at 1 µM in series [2] amounted to 164 min.
As to `COc1ccc(COc2c(OC)ccc3c2C[C@@H](C(=O)O)N(c2nc4ccc(C#N)cc4o2)C3)nc1` [Example 44, (S)-2-(6-cyanobenzo[d]oxazol-2-yl)-6-methoxy-5-((5-methoxypyridin-2-yl)methoxy)-1,2,3,4-tetrahydroisoquinoline-3-carboxylic acid], the half-maximal inhibitory concentration (IC50) in series [1] came out at 33 nM.
As to `CCS(=O)(=O)NC(=O)[C@@H]1Cc2c(ccc(OC)c2OCc2ccc(OC)cc2)CN1c1nc2ccc(F)cc2o1` [Example 45, (S)—N-(ethylsulfonyl)-2-(6-fluorobenzo[d]oxazol-2-yl)-6-methoxy-5-((4-methoxybenzyl)oxy)-1,2,3,4-tetrahydroisoquinoline-3-carboxamide], the IC50 in series [1] worked out at 6 nM.
Regarding `COc1ccc2c(c1OCc1ccccc1)C[C@@H](C(=O)O)N(C(=O)C(c1ccccc1)c1ccccc1)C2` [olodanrigan, reference compound], the half-life at 1 µM in series [2] was found to be 96.3 min. In addition, the bioavailability in series [3] was 12.1%. In series [3] (Oral (10 mg/kg)), the half-life was 1.5 ± 0.3 h, the AUC(0-inf) was found to be 1480 ± 715 ng·h/mL, the Cmax is 470 ± 197 ng/mL and the mean residence time MRT was 2.6 ± 1 h. Besides, in series [3] (setting [4]), the half-life was 1.6 ± 0.3 h, the AUC(0-inf) was 1230 ± 96 ng·h/mL and the MRT came out at 0.92 ± 0.16 h.
`COc1ccc2c(c1OCc1ccc(C(F)(F)F)cc1)C[C@@H](C(=O)O)N(c1nc3ccc(F)cc3o1)C2` [Example 38, (S)-2-(6-fluorobenzo[d]oxazol-2-yl)-6-methoxy-5-((4-(trifluoromethyl)benzyl)oxy)-1,2,3,4-tetrahydroisoquinoline-3-carboxylic acid] returned an IC50 in series [1] of 11 nM. This counts as double-digit nanomolar.
In series [1], `COc1ccc(COc2c(OC)ccc3c2C[C@@H](C(=O)NS(=O)(=O)N(C)C)N(c2nc4ccc(F)cc4o2)C3)cc1` [Example 46] gave an IC50 of 5 nM.
Turning to `COc1ccc(COc2c(OC)ccc3c2C[C@@H](C(=O)O)N(c2nc4ccc(C#N)cc4o2)C3)cc1` [Example 42, (S)-2-(6-cyanobenzo[d]oxazol-2-yl)-6-methoxy-5-((4-methoxybenzyl)oxy)-1,2,3,4-tetrahydroisoquinoline-3-carboxylic acid], the half-life at 1 µM in series [2] was 451 min. In series [1], this compound registered a 50% inhibitory concentration (IC50) of 6 nM.
`COc1ccc2c(c1COc1ccccc1)C[C@@H](C(=O)NS(=O)(=O)C1CC1)N(c1nc3ccc(F)cc3o1)C2` [Example 21, (S)—N-(cyclopropylsulfonyl)-2-(6-fluorobenzo[d]oxazol-2-yl)-6-methoxy-5-(phenoxymethyl)-1,2,3,4-tetrahydroisoquinoline-3-carboxamide]: the IC50 in series [1] amounted to 36 nM.
Same read-out and setting: the same measure for `COc1ccc2c(c1OCc1ccccc1)C[C@@H](C(=O)NS(C)(=O)=O)N(c1nc3ccc(F)cc3o1)C2` [Example 26, (S)-5-(Benzyloxy)-2-(6-fluorobenzo[d]oxazol-2-yl)-6-methoxy-N-(methylsulfonyl)-1,2,3,4-tetrahydroisoquinoline-3-carboxamide]: 37 nM; for `COc1ccc2c(c1COc1ccccc1)C[C@@H](C(=O)NS(=O)(=O)N(C)C)N(c1nc3ccc(F)cc3o1)C2` [Example 20, (S)—N—(N,N-dimethylaminosulfonyl)-2-(6-fluorobenzo[d]oxazol-2-yl)-6-methoxy-5-(phenoxymethyl)-1,2,3,4-tetrahydroisoquinoline-3-carboxamide]: 26 nM.
For `COc1ccc2c(c1OCc1ccccc1)CC(C(=O)NS(=O)(=O)N(C)C)N(c1nc3ccccc3o1)C2` (stereo not shown) [Example 9, 2-(Benzo[d]oxazol-2-yl)-5-(benzyloxy)-N—(N,N-dimethylsulfonyl)-6-methoxy-1,2,3,4-tetrahydroisoquinoline-3-carboxamide], the bioavailability in series [3] was found to be 71.1%. Further, in series [3] (Oral (10 mg/kg)), the half-life is 2.1 ± 1.6 h, the AUC(0-inf) was 18100 ± 5400 ng·h/mL, the Cmax came out at 9470 ± 5890 ng/mL and the MRT was determined as 2.2 ± 0.8 h. Besides, in series [3] (setting [4]), the half-life is 1.3 ± 0.1 h, the AUC(0-inf) is 2550 ± 720 ng·h/mL and the mean residence time MRT turned out to be 1.3 ± 0.2 h.
